According to ChEMBL document CHEMBL5038645, “Discovery of Mycobacterium tuberculosis Rv3364c-Derived Small Molecules as Potential Therapeutic Agents to Target SNX9 for Sepsis” (J Med Chem, 2022):
≈ marks a conversion by molar mass, not a printed value.

Experiments:
Type in all cases: functional
[1] = Antiinflammatory activity in […] cells assessed as reduction in LPS-induced NOX release at 10 uM pre incubated for 1 hr followed by LPS stimulation and measured after 30 mins by ELISA
[2] = Antiinflammatory activity in […] cells assessed as reduction in LPS-induced IL-6 release at 10 uM pre incubated for 1 hr followed by LPS stimulation and measured after 30 mins by ELISA
[3] = Antiinflammatory activity in […] cells assessed as reduction in LPS-induced TNF-alpha release at 10 uM pre incubated for 1 hr followed by LPS stimulation and measured after 30 mins by ELISA
[4] = system: Pseudomonas aeruginosa; experiment: Antibacterial activity against Pseudomonas aeruginosa ATCC 10145 assessed as bacterial clearance incubated for 6 to 24 hrs by microbroth dilution method; conditions: time 6-24 hrs
[5] = system: Staphylococcus aureus; experiment: Antibacterial activity against Staphylococcus aureus ATCC 6538 assessed as bacterial clearance incubated for 6 to 24 hrs by microbroth dilution method; conditions: time 6-24 hrs
[6] = system: Escherichia coli; experiment: Antibacterial activity against Escherichia coli ATCC 12701 assessed as bacterial clearance incubated for 6 to 24 hrs by microbroth dilution method; conditions: time 6-24 hrs

## C=CCNc1nc(NCCOCCOCCN)nc(-c2ccc(C(C)(C)C)cc2)n1
[1]
  inhibition at 10 µM: 29.2%
[2]
  inhibition at 10 µM: 32.6%
[3]
  inhibition at 10 µM: 23.4%

## CC(C)(C)c1ccc(-c2nc(NCCOCCOCCN)nc(NCc3ccc(Cl)cc3)n2)cc1
[1]
  inhibition at 10 µM: 38.4%
[2]
  inhibition at 10 µM: 50%
[3]
  inhibition at 10 µM: 15.2%

## CC(C)(C)c1ccc(-c2nc(NCCOCCN)nc(NCC3CCCO3)n2)cc1 (stereo not given)
[1]
  inhibition at 10 µM: 33.1%
[2]
  inhibition at 10 µM: 22.1%
[3]
  inhibition at 10 µM: 13.3%

## CC(C)(C)c1ccc(-c2nc(NCCOCCOCCN)nc(NCC3CCCCO3)n2)cc1 (stereo not given)
[1]
  inhibition at 10 µM: 46.1%
[2]
  inhibition at 10 µM: 56.7%
[3]
  inhibition at 10 µM: 10.4%

## CC1(C)S[C@@H]2[C@H](NC(=O)[C@H](N)c3ccccc3)C(=O)N2[C@H]1C(=O)O [AMPICILLIN]
[4]
  MIC80: 0.99 µg/mL (≈ 2.83 µM)
[5]
  MIC80: 0.25 µg/mL (≈ 0.715 µM)
[6]
  MIC80: 1.98 µg/mL (≈ 5.67 µM)

## GENTAMICIN
[4]
  MIC=>80: 7.94 µg/mL
[5]
  MIC=>80: 0.5 µg/mL
[6]
  MIC=>80: 0.99 µg/mL

## CC(C)(C)c1ccc(-c2nc(NCCOCCOCCN)nc(NCCc3ccccc3)n2)cc1
[1]
  inhibition at 10 µM: 23%
[2]
  inhibition at 10 µM: 40.2%
[3]
  inhibition at 10 µM: 25.3%

## NCCOCCOCCNc1nc(NCC2CCCO2)nc(-c2ccccc2)n1 (stereo not given)
[1]
  inhibition at 10 µM: 30.7%
[2]
  inhibition at 10 µM: 26.7%
[3]
  inhibition at 10 µM: 10.6%

## CC(C)(C)c1ccc(-c2nc(NCCOCCOCCN)nc(NCc3ccccc3)n2)cc1
[1]
  inhibition at 10 µM: 38.5%
[2]
  inhibition at 10 µM: 50%
[3]
  inhibition at 10 µM: 10.7%

## CC(C)(C)c1ccc(CNc2nc(NCCOCCOCCN)nc(-c3ccc(C(C)(C)C)cc3)n2)cc1
[1]
  inhibition at 10 µM: 38.4%
[2]
  inhibition at 10 µM: 46.7%
[3]
  inhibition at 10 µM: 55.2%

## COc1ccc(-c2nc(NCCOCCOCCN)nc(NCC3CCCO3)n2)cc1 (stereo not given)
[1]
  inhibition at 10 µM: 38.4%
[2]
  inhibition at 10 µM: 50.1%
[3]
  inhibition at 10 µM: 10.1%

## Cc1ccc(CNc2nc(NCCOCCOCCN)nc(-c3ccc(C(C)(C)C)cc3)n2)cc1
[1]
  inhibition at 10 µM: 15.3%
[2]
  inhibition at 10 µM: 33.3%
[3]
  inhibition at 10 µM: 35.9%

## Cc1cccc(CNc2nc(NCCOCCOCCN)nc(-c3ccc(C(C)(C)C)cc3)n2)c1
[1]
  inhibition at 10 µM: 41.6%
[2]
  inhibition at 10 µM: 56.7%
[3]
  inhibition at 10 µM: 25.3%

## NCCOCCOCCNc1nc(NCC2CCCO2)nc(-c2ccc(F)cc2)n1 (stereo not given)
[1]
  inhibition at 10 µM: 23%
[2]
  inhibition at 10 µM: 33.4%
[3]
  inhibition at 10 µM: 15.1%

## CC(C)(C)c1ccc(-c2nc(NCCOCCOCCN)nc(NCc3cccc(F)c3)n2)cc1
[1]
  inhibition at 10 µM: 38.5%
[2]
  inhibition at 10 µM: 46.7%
[3]
  inhibition at 10 µM: 35.6%
